# Reference: patent publication US10287234B2, “Triglyceride and use thereof” (NITTO PHARMACEUTICAL INDUSTRIES, LTD., priority 2015, dated 2019)
# Experiment: State (liquid or solid) at standard temperature by visual observation
# Assay type: physicochemical
# Protocol: Whether compounds (I) of the present invention of Examples 1-3, trilinolein of Comparative Example 1 and HYA of Comparative Example 2 are liquid or solid at standard temperature (about 20° C.) was confirmed by visual observation.
row,Compound,State at standard temperature (about 20° C.)
1,"CCCCC/C=C\C/C=C\CCCCCCCC(=O)OCC(COC(=O)CCCCCCCCC(O)C/C=C\CCCCC)OC(=O)CCCCCCC/C=C\C/C=C\CCCCC (stereo not drawn) [Ex. 1, Di(cis, cis-9,12-octadecadienoyl)(10-hydroxy-cis-12-octadecenoyl)glycerol]",liquid
2,"CCCCC/C=C\CC(O)CCCCCCCCC(=O)O (stereo not drawn) [compound 2, 10-Hydroxy-cis-12-octadecenoic Acid, reference compound]",solid
3,Tri(10-hydroxy-cis-12-octadecenoyl)glycerol [Ex. 3],liquid

# The next lines start with the values.
row,State at standard temperature (about 20° C.),Compound
1,liquid,"CCCCC/C=C\C/C=C\CCCCCCCC(=O)OC(COC(=O)CCCCCCCCC(O)C/C=C\CCCCC)COC(=O)CCCCCCCCC(O)C/C=C\CCCCC (stereo not drawn) [Ex. 2, Di(10-hydroxy-cis-12-octadecenoyl)(cis, cis-9,12-octadecadienoyl)glycerol]"
2,liquid,"CCCCC/C=C\C/C=C\CCCCCCCC(=O)OCC(COC(=O)CCCCCCC/C=C\C/C=C\CCCCC)OC(=O)CCCCCCC/C=C\C/C=C\CCCCC [compound 1, Trilinolein, reference compound]"
